# Source: publication PMC7673538 (PLoS Biology, 2020)
# “And” between values parts separate entries of the source, which are not always exact repeats. Identical values can stand only once. Like-named read-outs stand apart in the source and are kept apart here.
# Key:
# human DAT = molecular target: T1, human DAT (Homo sapiens, UniProt Q01959); format: cell-based; settings: for DAT, Mean (Figure 8B): Control = 100; for DAT, Mean as % (Figure 8B): Control = 100%
# T1 construct: expressed in transfected cells; host or cells: HEK293 (gift of Dr. Hoener, F. Hoffmann-La Roche)
# CV-B3 [1] = assay: microbe, parasite or virus in culture; format: cell-based, coxsackievirus B3; settings: Enterovirus B
# human SERT = molecular target: T2, human SERT (Homo sapiens, UniProt P31645); format: cell-based; settings: for SERT, Mean (Figure 8B): Control = 100.00; for SERT, Mean as % (Figure 8B): Control = 100%
# T2 construct: expressed in transfected cells; host or cells: HEK293 (gift of Dr. Hoener, F. Hoffmann-La Roche)
# human NET = molecular target: T3, human NET (Homo sapiens, UniProt P23975); format: cell-based; settings: for NET, Mean (Figure 8B): Control = 100; for NET, Mean as % (Figure 8B): Control = 100%
# T3 construct: expressed in transfected cells; host or cells: HEK293 (gift of Dr. Hoener, F. Hoffmann-La Roche)
# EV-D68 = assay: microbe, parasite or virus in culture; format: cell-based, enterovirus D68; settings: for EC50: Enterovirus D
# EV-A71 (strain BrCr) = format: cell-based, enterovirus A71
# HRV-B14 = assay: microbe, parasite or virus in culture; format: cell-based, human rhinovirus; settings: for EC50: Human rhinovirus sp.
# in vitro = settings: human
# CV-A24 (strain Joseph) = format: cell-based, coxsackievirus A24
# CV-B3 [2] = assay: microbe, parasite or virus in culture; format: cell-based, coxsackievirus B3
# T3 sequence (P23975 whole entry): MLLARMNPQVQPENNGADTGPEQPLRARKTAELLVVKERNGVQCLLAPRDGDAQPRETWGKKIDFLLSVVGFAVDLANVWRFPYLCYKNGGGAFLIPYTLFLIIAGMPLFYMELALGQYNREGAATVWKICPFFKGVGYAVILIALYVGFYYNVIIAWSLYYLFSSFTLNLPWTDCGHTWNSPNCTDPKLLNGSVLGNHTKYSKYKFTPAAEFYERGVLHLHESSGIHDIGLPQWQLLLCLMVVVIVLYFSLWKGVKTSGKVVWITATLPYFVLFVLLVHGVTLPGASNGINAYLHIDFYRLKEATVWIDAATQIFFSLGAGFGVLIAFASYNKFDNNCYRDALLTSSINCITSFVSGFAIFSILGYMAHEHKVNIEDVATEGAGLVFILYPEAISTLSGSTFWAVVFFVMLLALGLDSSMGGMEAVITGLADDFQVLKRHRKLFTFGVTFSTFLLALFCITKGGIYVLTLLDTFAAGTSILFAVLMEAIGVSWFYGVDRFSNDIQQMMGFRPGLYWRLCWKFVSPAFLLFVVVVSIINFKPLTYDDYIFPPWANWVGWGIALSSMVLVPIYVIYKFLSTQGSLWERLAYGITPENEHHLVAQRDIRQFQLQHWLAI
# T1 sequence (Q01959 whole entry): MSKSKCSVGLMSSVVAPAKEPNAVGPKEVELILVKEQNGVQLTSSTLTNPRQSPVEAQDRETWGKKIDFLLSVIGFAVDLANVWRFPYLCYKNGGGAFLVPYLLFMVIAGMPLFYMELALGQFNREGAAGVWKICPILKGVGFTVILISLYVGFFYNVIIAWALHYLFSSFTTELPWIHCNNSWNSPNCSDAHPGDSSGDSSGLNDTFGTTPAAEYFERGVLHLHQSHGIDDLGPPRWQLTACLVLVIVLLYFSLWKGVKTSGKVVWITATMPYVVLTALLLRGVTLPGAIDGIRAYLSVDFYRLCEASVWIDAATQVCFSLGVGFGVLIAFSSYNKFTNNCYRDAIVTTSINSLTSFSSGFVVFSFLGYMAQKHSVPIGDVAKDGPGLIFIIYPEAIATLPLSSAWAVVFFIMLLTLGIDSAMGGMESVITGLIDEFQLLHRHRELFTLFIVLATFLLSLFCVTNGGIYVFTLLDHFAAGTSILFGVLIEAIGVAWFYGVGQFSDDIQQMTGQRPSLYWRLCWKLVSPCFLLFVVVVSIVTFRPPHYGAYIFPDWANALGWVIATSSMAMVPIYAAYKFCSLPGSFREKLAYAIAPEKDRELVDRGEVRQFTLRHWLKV
# T2 sequence (P31645 whole entry): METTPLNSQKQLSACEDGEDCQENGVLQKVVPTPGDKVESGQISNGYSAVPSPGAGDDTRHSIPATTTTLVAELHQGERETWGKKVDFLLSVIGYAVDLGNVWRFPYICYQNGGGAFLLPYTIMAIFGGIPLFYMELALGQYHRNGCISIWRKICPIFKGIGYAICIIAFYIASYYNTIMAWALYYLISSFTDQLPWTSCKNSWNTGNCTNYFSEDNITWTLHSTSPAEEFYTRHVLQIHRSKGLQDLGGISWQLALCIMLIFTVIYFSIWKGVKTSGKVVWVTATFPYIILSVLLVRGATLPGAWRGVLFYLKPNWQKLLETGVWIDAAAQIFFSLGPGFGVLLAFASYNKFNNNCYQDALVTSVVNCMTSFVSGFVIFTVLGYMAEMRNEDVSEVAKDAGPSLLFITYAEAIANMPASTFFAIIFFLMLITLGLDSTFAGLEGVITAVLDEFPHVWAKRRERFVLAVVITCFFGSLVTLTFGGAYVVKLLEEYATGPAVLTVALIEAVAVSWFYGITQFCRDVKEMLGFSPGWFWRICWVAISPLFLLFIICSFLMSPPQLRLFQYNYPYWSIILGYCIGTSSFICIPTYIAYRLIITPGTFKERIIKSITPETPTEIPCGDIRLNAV
structure (smiles),measurement,setting,value
"COc1ccc(N(Cc2ccc(F)cc2)C(=O)c2cc[nH]c2)cc1 [Compound 12a, N-(4-Fluorobenzyl)-N-(4-methoxyphenyl)-1H-pyrrole-3-carboxamide]","DAT, Mean (Figure 8B)",human DAT; 1µM,80.4016
same,"DAT, Mean as % (Figure 8B)",human DAT; 1µM,80%
same,"DAT, Mean (Figure 8B)",human DAT; 100µM,86.9569
same,"DAT, Mean as % (Figure 8B)",human DAT; 100µM,87%
same,inhibition of DAT function (in words),"human DAT; HEK293 cells expressing human DAT, 1 μM or 100 μM","neither 12a, 19b, 19d, nor the combined compound 12b inhibited"
same,EC50,"CV-B3 [1]; CVB3, HAP1",0.02 ± 0.02 µM
same,EC50,"CV-B3 [1]; CVB3, HAP1, read-out: EC50 Hap1 Average",0.023 µM
same,EC50,"CV-B3 [1]; CVB3, HAP1, read-out: Exp 1 EC50 Hap1",0.04 µM
same,EC50,"CV-B3 [1]; CVB3, HAP1, read-out: Exp 2 EC50 Hap1",0.006 µM
same,"SERT, Mean (Figure 8B)",human SERT; 1µM,99.47
same,"SERT, Mean as % (Figure 8B)",human SERT; 1µM,99%
same,"SERT, Mean (Figure 8B)",human SERT; 100µM,114.09
same,"SERT, Mean as % (Figure 8B)",human SERT; 100µM,114%
same,inhibition of SERT-mediated uptake (in words),"human SERT; HEK293 cells expressing human SERT, 1 and 100 μM","neither 12a, 19b, 19d, nor the combined compound 12b inhibited"
same,"NET, Mean (Figure 8B)",human NET; 1µM,121.035
same,"NET, Mean as % (Figure 8B)",human NET; 1µM,121%
same,"NET, Mean (Figure 8B)",human NET; 100µM,112.597
same,"NET, Mean as % (Figure 8B)",human NET; 100µM,113%
same,inhibition of NET function (in words),"human NET; HEK293 cells expressing human NET, 1 μM or 100 μM","neither 12a, 19b, 19d, nor the combined compound 12b inhibited"
same,cross-resistance of 19d-resistant EV-D68 virus pools (in words),EV-D68,cross-resistance
same,"Figure 7 dose-response raw data, EV-D68 (triplicate values)",EV-D68; Concentration 0.001 µM,11.1333 and 12.4782 and 12.9265
same,"Figure 7 dose-response raw data, EV-D68 (triplicate values)",EV-D68; Concentration 0.0137 µM,9.388 and 8.898 and 11.4747
same,"Figure 7 dose-response raw data, EV-D68 (triplicate values)",EV-D68; Concentration 0.0412 µM,11.1333 and 12.4782 and 12.9265
same,"Figure 7 dose-response raw data, EV-D68 (triplicate values)",EV-D68; Concentration 0.1235 µM,10.386 and 11.4321 and 12.9265
same,"Figure 7 dose-response raw data, EV-D68 (triplicate values)",EV-D68; Concentration 0.3704 µM,8.529 and 8.161 and 15.8928
same,"Figure 7 dose-response raw data, EV-D68 (triplicate values)",EV-D68; Concentration 1.1111 µM,91.9917 and 94.6194 and 110.886
same,"Figure 7 dose-response raw data, EV-D68 (triplicate values)",EV-D68; Concentration 3.3333 µM,101.502 and 102.252 and 110.761
same,"Figure 7 dose-response raw data, EV-D68 (triplicate values)",EV-D68; Concentration 10 µM,100.876 and 104.38 and 113.014
same,EC50,"EV-D68; EVD68, HeLa R19, […], read-out: EC50 Exp1",3.04 µM
same,EC50,"EV-D68; EVD68, HeLa R19, read-out: EC50 Average",1.25 µM
same,EC50,"EV-D68; EVD68, HeLa R19, read-out: EC50 EV-D68",1.08 ± 0.2 µM
same,EC50,"EV-D68; EVD68, HeLa R19, read-out: EC50 EV-D68 strain 4310900947",1.84 ± 0.4 µM
same,EC50,"EV-D68; EVD68, HeLa R19, read-out: EC50 EV-D68 strain 4310901348",2.72 ± 0.96 µM
same,EC50,"EV-D68; EVD68, HeLa R19, read-out: EC50 EV-D68 strain 4310902042",1.44 ± 0.23 µM
same,EC50,"EV-D68; EVD68, HeLa R19, read-out: EC50 EV-D68 strain 4310902284",2.31 ± 0.82 µM
same,EC50,"EV-D68; EVD68, HeLa R19, read-out: EC50 EV-D68 strain 4311000742",1.86 ± 0.16 µM
same,EC50,"EV-D68; EVD68, HeLa R19, read-out: EC50 EV-D68 strain Fermon",1.23 ± 0.16 µM
same,EC50,"EV-D68; EVD68 / genotype 2c, HeLa R19, read-out: EC50 EV-D68 WT",1.25 ± 0.09 µM
same,"virus titer, TCID50/ml (Figure 2A)",EV-A71 (strain BrCr); compound concentration 1 µM,316228 TCID50/ml
same,"virus titer, TCID50/ml (Figure 2A)",EV-A71 (strain BrCr); compound concentration 3 µM,316.228 TCID50/ml
same,"virus titer, TCID50/ml (Figure 2A)",EV-A71 (strain BrCr); compound concentration 10 µM,316.228 TCID50/ml
same,"virus titer, TCID50/ml (Figure 2A)",EV-A71 (strain BrCr); compound concentration 30 µM,316.228 TCID50/ml
same,"virus titer, TCID50/ml (Figure 2A)",EV-A71 (strain BrCr); compound concentration 100 µM,316.228 TCID50/ml
same,"virus titer, TCID50/ml (Figure 2A)",EV-A71 (strain BrCr); compound concentration 150 µM,316.228 TCID50/ml
same,cytotoxicity (in words),HeLa R19 cells,no cytotoxicity
same,"Figure 7 dose-response raw data, HRV_B14 (triplicate values)",HRV-B14; Concentration 0.0046 µM,15.2266 and 14.5606
same,"Figure 7 dose-response raw data, HRV_B14 (triplicate values)",HRV-B14; Concentration 0.0412 µM,11.568 and 20.943 and 17.6535
same,"Figure 7 dose-response raw data, HRV_B14 (triplicate values)",HRV-B14; Concentration 0.3704 µM,18.8048 and 20.943 and 27.193
same,"Figure 7 dose-response raw data, HRV_B14 (triplicate values)",HRV-B14; Concentration 1.1111 µM,18.8048 and 20.943 and 27.193
same,"Figure 7 dose-response raw data, HRV_B14 (triplicate values)",HRV-B14; Concentration 3.3333 µM,94.6272 and 95.7785 and 85.4167
same,"Figure 7 dose-response raw data, HRV_B14 (triplicate values)",HRV-B14; Concentration 11.1111 µM,94.6272 and 95.7785 and 85.4167
same,"Figure 7 dose-response raw data, HRV_B14 (triplicate values)",HRV-B14; Concentration 33.3333 µM,98.3946 and 104.147 and 102.94
same,"Figure 7 dose-response raw data, HRV_B14 (triplicate values)",HRV-B14; Concentration 100 µM,89.5652 and 94.1472 and 100.034
same,EC50,"HRV-B14; HRVB14, HeLa R19, read-out: EC50 Exp1",1.66 µM
same,EC50,"HRV-B14; HRVB14, HeLa R19, read-out: EC50 HRV-B14",1.45 ± 0.21 µM
same,CC50,in vitro; CC50,> 100 µM
same,CC50,in vitro; CC50 Hap1 Average,> 100 µM
same,CC50,in vitro; Exp 1 CC50 Hap1,> 100 µM
same,CC50,in vitro; Exp 2 CC50 Hap1,> 100 µM
same,"virus titer, TCID50/ml (Figure 2A)",CV-A24 (strain Joseph); compound concentration 0.1 µM,469824 TCID50/ml and 562341 TCID50/ml and 300000 TCID50/ml
same,"virus titer, TCID50/ml (Figure 2A)",CV-A24 (strain Joseph); compound concentration 1 µM,169824 TCID50/ml and 316228 TCID50/ml
same,"virus titer, TCID50/ml (Figure 2A)",CV-A24 (strain Joseph); compound concentration 100 µM,316.228 TCID50/ml
same,cross-resistance of 19d-resistant CV-B3 virus pools (in words),CV-B3 [2],cross-resistant
same,increase of antiviral activity against CV-B3,CV-B3 [2],~25 fold
same,"Figure 7 dose-response raw data, CV-B3 (triplicate values)",CV-B3 [2]; Concentration 0.001 µM,10.6023 and 13.4886 and 15.1049
same,"Figure 7 dose-response raw data, CV-B3 (triplicate values)",CV-B3 [2]; Concentration 0.0137 µM,31.7298 and 16.0285 and 26.5345
same,"Figure 7 dose-response raw data, CV-B3 (triplicate values)",CV-B3 [2]; Concentration 0.3704 µM,108.081 and 95.0938 and 115.255
same,"Figure 7 dose-response raw data, CV-B3 (triplicate values)",CV-B3 [2]; Concentration 1.1111 µM,110.307 and 87.92 and 98.0623
same,"Figure 7 dose-response raw data, CV-B3 (triplicate values)",CV-B3 [2]; Concentration 3.3333 µM,103.381 and 89.7753 and 100.165
